Test results as given in patent US20210130417A1, “SYSTEMS AND METHODS FOR DESIGNING SYNTHETIC ANTIMICROBIAL PEPTIDES” (University of Notre Dame du Lac, priority 2017, published 2021).
In brackets after ≈: the same amount, converted by molar mass. Residues, ends and D or L forms follow the SMILES beside them.

Tests used:
E. coli BL-21 = assay type: cell-based, Escherichia coli
Method: The E. coli, P. aeruginosa, and P. syringae bacterial strains were routinely grown in LB broth (EMD Chemicals, Gibbstown, N.J.). […] All other bacteria were grown at 37° C. with agitation.
Overnight bacterial cultures were diluted to an OD of 0.01. μL of diluted culture and 10 μL of 10× peptide or vehicle were added to the wells of a 96-well microtiter plate for a final 1× concentration. Bacteria were grown in desired growth conditions in a Synergy H1 Microplate Reader (Biotek, Winooski, Vt.). For MIC, serial two-fold dilutions of the peptides were used. MIC was determined as the concentration of peptide that prevented overnight growth as indicated by OD 600.

[1] = test system: Streptococcus pyogenes M1T1
Source text: (§1) E. coli BL-21 frozen stock culture was purchased from Thermo Fischer. Pseudomonas aeruginosa PAO1 frozen stock culture was obtained from the Shrout Laboratory at the University of Notre Dame. Pseudomonas syringae frozen stock culture was obtained from the Innes Laboratory at Indiana University. Xanthomonas axonopodis pathovar Starr and Garces pathovar phaseoli (ATCC 9563) frozen stock culture was purchased from the ATCC. Streptococcus pyogenes M1T1 frozen stock culture was obtained from the lab of Dr. Victor Nizet, University of California San Diego. A methicillin resistant Staphylococcus aureus JKD frozen stock culture was obtained from the lab of Dr. Timothy Stinear, University of Melbourne.
(§2) The E. coli, P. aeruginosa, and P. syringae bacterial strains were routinely grown in LB broth (EMD Chemicals, Gibbstown, N.J.). S. aureus and S. pyogenes were routinely grown in Todd Hewitt broth (Neogen Corporation, Lansing, Mich.). X. axonopodis was routinely grown in Nutrient Broth (Sigma-Aldrich Co., St. Louis, Mo.). P. syringae and X. axonopodis were grown at room temperature without agitation. All other bacteria were grown at 37° C. with agitation.
(§3) Overnight bacterial cultures were diluted to an OD of 0.01. […] and 10 μL of 10× peptide or vehicle were added to the wells of a 96-well microtiter plate for a final 1× concentration. Bacteria were grown in desired growth conditions in a Synergy H1 Microplate Reader (Biotek, Winooski, Vt.). For MIC, serial two-fold dilutions of the peptides were used. MIC was determined as the concentration of peptide that prevented overnight growth as indicated by OD 600. For peptide screening, 8 μM or 4 μM peptide was screened against various bacteria. Peptides that inhibited overnight growth were selected for further study.

[2] = test system: sheep red blood cells (RBCs); conditions: compared to the PBS control
Method: For hemolysis assays, 100 μL of sheep red blood cells (RBCs) were washed three times in cold PBS (Thermo Fischer). Washed cells were resuspended in 25 mL of PBS. Triton, PBS, or peptide in 10% DMSO/PBS were added to 180 μL of resuspended RBCs and incubated at 37° C. for 1 h. Samples were read at 450 nm. Data was expressed as percent hemolysis by relativizing to the Triton and PBS controls.

[3] = test system: Pseudomonas aeruginosa PAO1
Source text: as §1, §2, §3

SMILES: CC[C@H](C)[C@H](NC(=O)[C@H](CCCCN)NC(=O)[C@H](CC(N)=O)NC(=O)[C@H](CCCCN)NC(=O)[C@H](CC(C)C)NC(=O)[C@H](Cc1ccc(O)cc1)NC(=O)[C@H](CCC(N)=O)NC(=O)[C@H](CCCNC(=N)N)NC(=O)[C@@H](NC(=O)[C@@H](NC(=O)[C@H](CCCCN)NC(=O)[C@H](CCCCN)NC(=O)[C@H](Cc1c[nH]c2ccccc12)NC(=O)[C@H](C)N)[C@@H](C)O)[C@@H](C)CC)C(=O)N[C@@H](CCCCN)C(=O)N[C@@H](CCCCN)C(=O)N[C@@H](CCCCN)C(=O)N[C@@H](Cc1c[nH]c2ccccc12)C(=O)N[C@@H](CCCNC(=N)N)C(=O)N[C@@H](CCCCN)C(=O)N[C@@H](C)C(=O)N[C@H](C(=O)N[C@H](C(=O)N[C@@H](C)C(=O)N[C@@H](Cc1c[nH]c2ccccc12)C(=O)O)[C@@H](C)CC)C(C)C [Peptide 92] (H-AWKKTIRQYLKNKIKKKWRKAVIAW-OH)
- MIC E. coli (E. coli BL-21): 4 µM (≈ 12.7 µg/mL)
- MIC S. pyogenes [1]: 8 µM
- hemolysis of library peptides [2]: no significant changes in hemolysis

SMILES: CC[C@H](C)[C@H](NC(=O)[C@H](CCCCN)NC(=O)[C@H](CCC(=O)O)NC(=O)[C@H](CCCCN)NC(=O)[C@H](Cc1c[nH]c2ccccc12)NC(=O)[C@H](C)N)C(=O)N[C@@H](CCCNC(=N)N)C(=O)N[C@@H](CCCCN)C(=O)N[C@@H](CCCCN)C(=O)N[C@@H](CC(C)C)C(=O)N[C@@H](CCCCN)C(=O)N[C@@H](CC(N)=O)C(=O)N[C@@H](CCC(=O)O)C(=O)N[C@H](C(=O)N[C@@H](CCCCN)C(=O)N[C@@H](CCCCN)C(=O)N[C@@H](CCCCN)C(=O)N[C@@H](Cc1c[nH]c2ccccc12)C(=O)N[C@@H](CCCNC(=N)N)C(=O)N[C@@H](CCCCN)C(=O)N[C@@H](C)C(=O)N[C@H](C(=O)N[C@H](C(=O)N[C@@H](C)C(=O)N[C@@H](Cc1c[nH]c2ccccc12)C(=O)O)[C@@H](C)CC)C(C)C)[C@@H](C)CC [Peptide 96] (H-AWKEKIRKKLKNEIKKKWRKAVIAW-OH)
- MIC E. coli (E. coli BL-21): 2 µM (≈ 6.36 µg/mL)
- MIC S. pyogenes [1]: 8 µM
- MIC P. aeruginosa [3]: 8 µM
- hemolysis of library peptides [2]: no significant changes in hemolysis

SMILES: CC[C@H](C)[C@H](NC(=O)[C@H](CCCCN)NC(=O)[C@H](CC(N)=O)NC(=O)[C@H](CCCCN)NC(=O)[C@H](CC(C)C)NC(=O)[C@H](Cc1ccc(O)cc1)NC(=O)[C@H](CCC(N)=O)NC(=O)[C@H](CCCNC(=N)N)NC(=O)[C@@H](NC(=O)[C@@H](NC(=O)[C@H](CCC(=O)O)NC(=O)[C@H](CCCCN)NC(=O)[C@H](Cc1c[nH]c2ccccc12)NC(=O)[C@H](C)N)[C@@H](C)O)[C@@H](C)CC)C(=O)N[C@@H](CCCCN)C(=O)N[C@@H](CCCCN)C(=O)N[C@@H](CCCCN)C(=O)N[C@@H](Cc1c[nH]c2ccccc12)C(=O)N[C@@H](CCCNC(=N)N)C(=O)N[C@@H](CCCCN)C(=O)N[C@@H](C)C(=O)N[C@H](C(=O)N[C@H](C(=O)N[C@@H](C)C(=O)N[C@@H](Cc1c[nH]c2ccccc12)C(=O)O)[C@@H](C)CC)C(C)C [Peptide 91] (H-AWKETIRQYLKNKIKKKWRKAVIAW-OH)
- MIC E. coli (E. coli BL-21): 2 µM (≈ 6.37 µg/mL)
- MIC S. pyogenes [1]: 10 µM
- hemolysis of library peptides [2]: low levels of hemolysis at higher concentrations

SMILES: CC[C@H](C)[C@H](NC(=O)[C@H](CCC(=O)O)NC(=O)[C@H](CC(N)=O)NC(=O)[C@H](CCCCN)NC(=O)[C@H](CC(C)C)NC(=O)[C@H](Cc1ccc(O)cc1)NC(=O)[C@H](CCC(N)=O)NC(=O)[C@H](CCCNC(=N)N)NC(=O)[C@@H](NC(=O)[C@@H](NC(=O)[C@H](CCCCN)NC(=O)[C@H](CCCCN)NC(=O)[C@H](Cc1c[nH]c2ccccc12)NC(=O)[C@H](C)N)[C@@H](C)O)[C@@H](C)CC)C(=O)N[C@@H](CCCCN)C(=O)N[C@@H](CCCCN)C(=O)N[C@@H](CCCCN)C(=O)N[C@@H](Cc1c[nH]c2ccccc12)C(=O)N[C@@H](CCCNC(=N)N)C(=O)N[C@@H](CCCCN)C(=O)N[C@@H](C)C(=O)N[C@H](C(=O)N[C@H](C(=O)N[C@@H](C)C(=O)N[C@@H](Cc1c[nH]c2ccccc12)C(=O)O)[C@@H](C)CC)C(C)C [Peptide 90] (H-AWKKTIRQYLKNEIKKKWRKAVIAW-OH)
- MIC E. coli (E. coli BL-21): 2 µM (≈ 6.37 µg/mL)
- MIC S. pyogenes [1]: 8 µM
- hemolysis of library peptides [2]: low levels of hemolysis at higher concentrations

SMILES: CC[C@H](C)[C@H](NC(=O)[C@H](CCC(=O)O)NC(=O)[C@H](CC(N)=O)NC(=O)[C@H](CCCCN)NC(=O)[C@H](CC(C)C)NC(=O)[C@H](Cc1ccc(O)cc1)NC(=O)[C@H](CCCCN)NC(=O)[C@H](CCCNC(=N)N)NC(=O)[C@@H](NC(=O)[C@@H](NC(=O)[C@H](CCC(=O)O)NC(=O)[C@H](CCCCN)NC(=O)[C@H](Cc1c[nH]c2ccccc12)NC(=O)[C@H](C)N)[C@@H](C)O)[C@@H](C)CC)C(=O)N[C@@H](CCCCN)C(=O)N[C@@H](CCCCN)C(=O)N[C@@H](CCCCN)C(=O)N[C@@H](Cc1c[nH]c2ccccc12)C(=O)N[C@@H](CCCNC(=N)N)C(=O)N[C@@H](CCCCN)C(=O)N[C@@H](C)C(=O)N[C@H](C(=O)N[C@H](C(=O)N[C@@H](C)C(=O)N[C@@H](Cc1c[nH]c2ccccc12)C(=O)O)[C@@H](C)CC)C(C)C [Peptide 94] (H-AWKETIRKYLKNEIKKKWRKAVIAW-OH)
- MIC E. coli (E. coli BL-21): 2 µM (≈ 6.38 µg/mL)
- MIC S. pyogenes [1]: 10 µM
- MIC P. aeruginosa [3]: 8 µM
- hemolysis of library peptides [2]: low levels of hemolysis at higher concentrations

SMILES: CC[C@H](C)[C@H](NC(=O)[C@H](CCCCN)NC(=O)[C@H](CC(N)=O)NC(=O)[C@H](CCCCN)NC(=O)[C@H](CC(C)C)NC(=O)[C@H](Cc1ccc(O)cc1)NC(=O)[C@H](CCC(N)=O)NC(=O)[C@H](CCCNC(=N)N)NC(=O)[C@@H](NC(=O)[C@@H](NC(=O)[C@H](CCCCN)NC(=O)[C@H](CCCCN)NC(=O)CNC(=O)[C@H](C)N)[C@@H](C)O)[C@@H](C)CC)C(=O)N[C@@H](CCCCN)C(=O)N[C@@H](CCCCN)C(=O)N[C@@H](CCCCN)C(=O)NCC(=O)N[C@@H](CCCNC(=N)N)C(=O)N[C@@H](CCCCN)C(=O)N[C@@H](Cc1c[nH]c2ccccc12)C(=O)N[C@H](C(=O)N[C@H](C(=O)N[C@@H](C)C(=O)N[C@@H](Cc1c[nH]c2ccccc12)C(=O)O)[C@@H](C)CC)C(C)C [Peptide 60] (H-AGKKTIRQYLKNKIKKKGRKWVIAW-OH)
- hemolysis of library peptides [2]: no significant changes in hemolysis

SMILES: CC[C@H](C)[C@H](NC(=O)[C@H](CCCCN)NC(=O)[C@H](CC(N)=O)NC(=O)[C@H](CCCCN)NC(=O)[C@H](CC(C)C)NC(=O)[C@H](Cc1ccc(O)cc1)NC(=O)[C@H](CCC(N)=O)NC(=O)[C@H](CCCNC(=N)N)NC(=O)[C@@H](NC(=O)[C@@H](NC(=O)[C@H](CCCCN)NC(=O)[C@H](CCCCN)NC(=O)CNC(=O)[C@H](C)N)[C@@H](C)O)[C@@H](C)CC)C(=O)N[C@@H](CCCCN)C(=O)N[C@@H](CCCCN)C(=O)N[C@@H](CCCCN)C(=O)N[C@@H](Cc1c[nH]c2ccccc12)C(=O)N[C@@H](CCCNC(=N)N)C(=O)N[C@@H](CCCCN)C(=O)N[C@@H](C)C(=O)N[C@H](C(=O)N[C@H](C(=O)N[C@@H](C)C(=O)N[C@@H](Cc1c[nH]c2ccccc12)C(=O)O)[C@@H](C)CC)C(C)C [Peptide 52] (H-AGKKTIRQYLKNKIKKKWRKAVIAW-OH)
- MIC E. coli (E. coli BL-21): 8 µM (≈ 24.5 µg/mL)
- MIC S. pyogenes [1]: 8 µM
- MIC P. aeruginosa [3]: 10 µM
- hemolysis of library peptides [2]: low levels of hemolysis at higher concentrations

SMILES: CC[C@H](C)[C@H](NC(=O)[C@H](CCCCN)NC(=O)[C@H](CCC(=O)O)NC(=O)[C@H](CCCCN)NC(=O)[C@H](Cc1c[nH]c2ccccc12)NC(=O)[C@H](C)N)C(=O)N[C@@H](CCCNC(=N)N)C(=O)N[C@@H](CCC(N)=O)C(=O)N[C@@H](Cc1ccc(O)cc1)C(=O)N[C@@H](CC(C)C)C(=O)N[C@@H](CCCCN)C(=O)N[C@@H](CC(N)=O)C(=O)N[C@@H](CCC(=O)O)C(=O)N[C@H](C(=O)N[C@@H](CCCCN)C(=O)N[C@@H](CCCCN)C(=O)N[C@@H](CCCCN)C(=O)N[C@@H](Cc1c[nH]c2ccccc12)C(=O)N[C@@H](CCCNC(=N)N)C(=O)N[C@@H](CCCCN)C(=O)N[C@@H](C)C(=O)N[C@H](C(=O)N[C@H](C(=O)N[C@@H](C)C(=O)N[C@@H](Cc1c[nH]c2ccccc12)C(=O)O)[C@@H](C)CC)C(C)C)[C@@H](C)CC [Peptide 93] (H-AWKEKIRQYLKNEIKKKWRKAVIAW-OH)
- MIC E. coli (E. coli BL-21): 1 µM (≈ 3.21 µg/mL)
- MIC S. pyogenes [1]: 8 µM
- hemolysis of library peptides [2]: low levels of hemolysis at higher concentrations

SMILES: CC[C@H](C)[C@H](NC(=O)[C@H](CCCCN)NC(=O)[C@H](CC(N)=O)NC(=O)[C@H](CCCCN)NC(=O)[C@H](CC(C)C)NC(=O)[C@H](Cc1ccc(O)cc1)NC(=O)[C@H](CCC(N)=O)NC(=O)[C@H](CCCNC(=N)N)NC(=O)[C@@H](NC(=O)[C@@H](NC(=O)[C@H](CCCCN)NC(=O)[C@H](CCCCN)NC(=O)[C@H](Cc1c[nH]c2ccccc12)NC(=O)[C@H](C)N)[C@@H](C)O)[C@@H](C)CC)C(=O)N[C@@H](CCCCN)C(=O)N[C@@H](CCCCN)C(=O)N[C@@H](CCCCN)C(=O)NCC(=O)N[C@@H](CCCNC(=N)N)C(=O)N[C@@H](CCCCN)C(=O)N[C@@H](C)C(=O)N[C@H](C(=O)N[C@H](C(=O)N[C@@H](C)C(=O)N[C@@H](Cc1c[nH]c2ccccc12)C(=O)O)[C@@H](C)CC)C(C)C [Peptide 20] (H-AWKKTIRQYLKNKIKKKGRKAVIAW-OH)
- MIC E. coli (E. coli BL-21): 8 µM (≈ 24.5 µg/mL)
- MIC S. pyogenes [1]: 8 µM
- MIC P. aeruginosa [3]: 10 µM
- hemolysis of library peptides [2]: no significant changes in hemolysis
